Counter-ions that a name gives are not always drawn. Like-named read-outs stand apart in the source and are kept apart here.
Columns and labels:
Assay in all cases: AK assay 384-well format, Prestwick library screening
E. faecium = assay type: cell-based, Enterococcus faecium; details: 50 μM final drug concentration; for fold induction at 50 µM: Enterococcus faecium, 3 h
[1] = test system: S. aureus strain USA300-0114; assay type: cell-based, Staphylococcus aureus; details: 50 μM final drug concentration; for fold induction at 50 µM: Staphylococcus aureus, USA300, 3 h
K. pneumoniae = assay type: cell-based, Klebsiella pneumoniae; details: 50 μM final drug concentration; for fold induction at 50 µM: Klebsiella pneumoniae, 3 h
[2] = test system: A. baumannii strain 98-37-09; assay type: cell-based, Acinetobacter baumannii; details: 50 μM final drug concentration; for fold induction at 50 µM: Acinetobacter baumannii, 983709, 3 h
P. aeruginosa = assay type: cell-based, Pseudomonas aeruginosa; details: 50 μM final drug concentration; for fold induction at 50 µM: Pseudomonas aeruginosa, 3 h
E. cloacae = assay type: cell-based, Enterobacter cloacae; details: 50 μM final drug concentration; for fold induction at 50 µM: Enterobacter cloacae, 3 h
E. coli = assay type: cell-based, Escherichia coli; details: 50 μM final drug concentration; for fold induction at 50 µM: Escherichia coli, 3 h

CC(=O)c1ccc(S(=O)(=O)NC(=O)NC2CCCCC2)cc1 [Acetohexamide]
fold induction at 50 µM (E. faecium; planktonic E. faecium, 384-well, cutoff for positive-scoring molecules 3-fold increase, read-out: AK-based Prestwick Library Screening Results: E. faecium (increase in extracellular AK activity)): 0.9 | fold induction at 50 µM ([1]; planktonic S. aureus, 384-well, cutoff for positive-scoring molecules 3-fold increase, read-out: AK-based Prestwick Library Screening Results: S. aureus (increase in extracellular AK activity)): 1.1 | fold induction at 50 µM (K. pneumoniae; planktonic K. pneumoniae, 384-well, cutoff for positive-scoring molecules 3-fold increase, read-out: AK-based Prestwick Library Screening Results: K. pneumoniae (increase in extracellular AK activity)): 0.8 | fold induction at 50 µM ([2]; planktonic A. baumannii, 384-well, cutoff for positive-scoring molecules 3-fold increase, read-out: AK-based Prestwick Library Screening Results: A. baumannii (increase in extracellular AK activity)): 1.1 | fold induction at 50 µM (P. aeruginosa; planktonic P. aeruginosa, 384-well, cutoff for positive-scoring molecules 3-fold increase, read-out: AK-based Prestwick Library Screening Results: P. aeruginosa (increase in extracellular AK activity)): 1.2 | fold induction at 50 µM (E. cloacae; planktonic E. cloacae, 384-well, cutoff for positive-scoring molecules 3-fold increase, read-out: AK-based Prestwick Library Screening Results: E. cloacae (increase in extracellular AK activity)): 1.7 | fold induction at 50 µM (E. coli; planktonic E. coli, 384-well, cutoff for positive-scoring molecules 3-fold increase, read-out: AK-based Prestwick Library Screening Results: E. coli (increase in extracellular AK activity)): 1.2

CC(=O)N(CC(O)CO)c1c(I)c(C(=O)NCC(O)CO)c(I)c(C(=O)NCC(O)CO)c1I (stereo not shown) [Iohexol]
fold induction at 50 µM (E. faecium; planktonic E. faecium, cutoff for positive-scoring molecules 3-fold increase, read-out: AK-based Prestwick Library Screening Results, E. faecium (increase in extracellular AK activity)): 0.9 | fold induction at 50 µM ([1]; planktonic S. aureus, cutoff for positive-scoring molecules 3-fold increase, read-out: AK-based Prestwick Library Screening Results, S. aureus (increase in extracellular AK activity)): 0.7 | fold induction at 50 µM (K. pneumoniae; planktonic K. pneumoniae, cutoff for positive-scoring molecules 3-fold increase, read-out: AK-based Prestwick Library Screening Results, K. pneumoniae (increase in extracellular AK activity)): 0.7 | fold induction at 50 µM ([2]; planktonic A. baumannii, cutoff for positive-scoring molecules 3-fold increase, read-out: AK-based Prestwick Library Screening Results, A. baumannii (increase in extracellular AK activity)): 0.9 | fold induction at 50 µM (P. aeruginosa; planktonic P. aeruginosa, cutoff for positive-scoring molecules 3-fold increase, read-out: AK-based Prestwick Library Screening Results, P. aeruginosa (increase in extracellular AK activity)): 0.8 | fold induction at 50 µM (E. cloacae; planktonic E. cloacae, cutoff for positive-scoring molecules 3-fold increase, read-out: AK-based Prestwick Library Screening Results, E. cloacae (increase in extracellular AK activity)): 1.1 | fold induction at 50 µM (E. coli; planktonic E. coli, cutoff for positive-scoring molecules 3-fold increase, read-out: AK-based Prestwick Library Screening Results, E. coli (increase in extracellular AK activity)): 1

NS(=O)(=O)c1cc(C(=O)O)cc(N2CCCC2)c1Oc1ccccc1 [Piretanide]
fold induction at 50 µM (E. faecium; cutoff for positive-scoring molecules 3-fold increase, read-out: AK-based Prestwick Library Screening Results, E. faecium (fold increase in extracellular AK activity)): 0.8 | fold induction at 50 µM ([1]; cutoff for positive-scoring molecules 3-fold increase, read-out: AK-based Prestwick Library Screening Results, S. aureus (fold increase in extracellular AK activity)): 0.4 | fold induction at 50 µM (K. pneumoniae; cutoff for positive-scoring molecules 3-fold increase, read-out: AK-based Prestwick Library Screening Results, K. pneumoniae (fold increase in extracellular AK activity)): 0.5 | fold induction at 50 µM ([2]; cutoff for positive-scoring molecules 3-fold increase, read-out: AK-based Prestwick Library Screening Results, A. baumannii (fold increase in extracellular AK activity)): 0.4 | fold induction at 50 µM (P. aeruginosa; cutoff for positive-scoring molecules 3-fold increase, read-out: AK-based Prestwick Library Screening Results, P. aeruginosa (fold increase in extracellular AK activity)): 0.4 | fold induction at 50 µM (E. cloacae; cutoff for positive-scoring molecules 3-fold increase, read-out: AK-based Prestwick Library Screening Results, E. cloacae (fold increase in extracellular AK activity)): 0.4 | fold induction at 50 µM (E. coli; cutoff for positive-scoring molecules 3-fold increase, read-out: AK-based Prestwick Library Screening Results, E. coli (fold increase in extracellular AK activity)): 0.5

CC1(C)O[C@@H]2C[C@H]3[C@@H]4C[C@H](F)C5=CC(=O)C=C[C@]5(C)[C@H]4[C@@H](O)C[C@]3(C)[C@]2(C(=O)CO)O1 [Flunisolide]
fold induction at 50 µM (E. faecium; planktonic, cutoff for positive 3-fold increase, read-out: AK-based Prestwick Library Screening Results, E. faecium (fold increase in extracellular AK activity)): 0.9 | fold induction at 50 µM ([1]; planktonic, cutoff for positive 3-fold increase, read-out: AK-based Prestwick Library Screening Results, S. aureus (fold increase in extracellular AK activity)): 0.4 | fold induction at 50 µM (K. pneumoniae; planktonic, cutoff for positive 3-fold increase, read-out: AK-based Prestwick Library Screening Results, K. pneumoniae (fold increase in extracellular AK activity)): 0.5 | fold induction at 50 µM ([2]; planktonic, cutoff for positive 3-fold increase, read-out: AK-based Prestwick Library Screening Results, A. baumannii (fold increase in extracellular AK activity)): 0.4 | fold induction at 50 µM (P. aeruginosa; planktonic, cutoff for positive 3-fold increase, read-out: AK-based Prestwick Library Screening Results, P. aeruginosa (fold increase in extracellular AK activity)): 0.3 | fold induction at 50 µM (E. cloacae; planktonic, cutoff for positive 3-fold increase, read-out: AK-based Prestwick Library Screening Results, E. cloacae (fold increase in extracellular AK activity)): 0.3 | fold induction at 50 µM (E. coli; planktonic, cutoff for positive 3-fold increase, read-out: AK-based Prestwick Library Screening Results, E. coli (fold increase in extracellular AK activity)): 0.5

C[C@]12N[C@H](Cc3ccccc31)c1ccccc12 [Dizocilpine maleate]
fold induction at 50 µM (E. faecium; 384-well format, […], read-out: AK-based Prestwick Library Screening Results, E. faecium (increase in extracellular AK activity)): 0.9 | fold induction at 50 µM ([1]; 384-well format, […], read-out: AK-based Prestwick Library Screening Results, S. aureus (increase in extracellular AK activity)): 0.7 | fold induction at 50 µM (K. pneumoniae; 384-well format, […], read-out: AK-based Prestwick Library Screening Results, K. pneumoniae (increase in extracellular AK activity)): 0.7 | fold induction at 50 µM ([2]; 384-well format, […], read-out: AK-based Prestwick Library Screening Results, A. baumannii (increase in extracellular AK activity)): 0.8 | fold induction at 50 µM (P. aeruginosa; 384-well format, […], read-out: AK-based Prestwick Library Screening Results, P. aeruginosa (increase in extracellular AK activity)): 0.9 | fold induction at 50 µM (E. cloacae; 384-well format, […], read-out: AK-based Prestwick Library Screening Results, E. cloacae (increase in extracellular AK activity)): 1 | fold induction at 50 µM (E. coli; 384-well format, […], read-out: AK-based Prestwick Library Screening Results, E. coli (increase in extracellular AK activity)): 0.9

CN(CCCCCCCCCCN(C)C(=O)Oc1cccc([N+](C)(C)C)c1)C(=O)Oc1cccc([N+](C)(C)C)c1 [Demecarium bromide]
fold induction at 50 µM (E. faecium; planktonic, […], read-out: AK-based Prestwick Library Screening Results, E. faecium (fold increase in extracellular AK activity)): 1 | fold induction at 50 µM ([1]; planktonic, […], read-out: AK-based Prestwick Library Screening Results, S. aureus (fold increase in extracellular AK activity)): 0.8 | fold induction at 50 µM (K. pneumoniae; planktonic, […], read-out: AK-based Prestwick Library Screening Results, K. pneumoniae (fold increase in extracellular AK activity)): 1 | fold induction at 50 µM ([2]; planktonic, […], read-out: AK-based Prestwick Library Screening Results, A. baumannii (fold increase in extracellular AK activity)): 1.1 | fold induction at 50 µM (P. aeruginosa; planktonic, […], read-out: AK-based Prestwick Library Screening Results, P. aeruginosa (fold increase in extracellular AK activity)): 1.3 | fold induction at 50 µM (E. cloacae; planktonic, […], read-out: AK-based Prestwick Library Screening Results, E. cloacae (fold increase in extracellular AK activity)): 2 | fold induction at 50 µM (E. coli; planktonic, […], read-out: AK-based Prestwick Library Screening Results, E. coli (fold increase in extracellular AK activity)): 1.4

C[C@@H]1O[C@@H](O[C@@H]2C=C3CC[C@@H]4[C@H](CC[C@]5(C)[C@@H](c6ccc(=O)oc6)CC[C@]45O)[C@@]3(C)CC2)[C@H](O)[C@H](O)[C@H]1O [Proscillaridin A]
AK-based Prestwick library screening result, E. faecium (fold increase in extracellular AK activity) (E. faecium; planktonic E. faecium, […]): 0.8 | AK-based Prestwick library screening result, S. aureus (fold increase in extracellular AK activity) ([1]; planktonic S. aureus, […]): 0.6 | AK-based Prestwick library screening result, K. pneumoniae (fold increase in extracellular AK activity) (K. pneumoniae; planktonic K. pneumoniae, […]): 0.7 | AK-based Prestwick library screening result, A. baumannii (fold increase in extracellular AK activity) ([2]; planktonic A. baumannii, […]): 0.8 | AK-based Prestwick library screening result, P. aeruginosa (fold increase in extracellular AK activity) (P. aeruginosa; planktonic P. aeruginosa, […]): 0.9 | AK-based Prestwick library screening result, E. cloacae (fold increase in extracellular AK activity) (E. cloacae; planktonic E. cloacae, […]): 0.9 | AK-based Prestwick library screening result, E. coli (fold increase in extracellular AK activity) (E. coli; planktonic E. coli, […]): 0.9

— US10004701B2, “Methods and compositions for treating infection” (UNIVERSITY OF ROCHESTER, priority 2012, dated 2018)
